# Key:
# [1] = test system: CD95-mediated Ca^2+ response; test: Calcium response to cl-CD95L in MDA MB 231 cells; type: cell-based; conditions: MDA MB 231 pre-incubated 1 hr, 10 μM peptide; 100 ng/ml cl-CD95L
# Description: Cells were loaded with Fura2-AM (1 μM) at resting temperature for 30 min in Hank's Balanced Salt Solution (HBSS). After washing with HBSS, the cells were incubated for 15 min in the absence of Fura2-AM to complete de-esterification of the dye. Cells were placed in a thermostated chamber (37° C.) of an inverted epifluorescence microscope (Olympus IX70) equipped with a ×40, UApo/340-1.15 W water-immersion objective (Olympus), and fluorescence micrograph images were captured at 510 nm and at 12-bit resolution by a fast-scan camera (CoolSNAP fx Monochrome, Photometrics). To minimize UV light exposure, 4×4 binning function was used. Fura2-AM was alternately excited at 340 and 380 nm, and ratios of the resulting images (excitations at 340 and 380 nm and emission filter at 520 nm) were produced at constant intervals (5 s or 10 s according to the stimulus). […] Fluorescent images were pseudocolored using the IMD display mode in MetaFluor and assembled without further manipulation in Photoshop (Adobe). Raw data were acquired with MetaFluor and graphed in Origin (OriginLab). […]
# [2] = test system: CD95-mediated Ca^2+ response; test: Calcium response to cl-CD95L in activated PBL; type: cell-based, human; conditions: activated PBL pre-incubated 1 hr, 10 μM peptide, 100 ng/ml cl-CD95L
# Description: Cells were loaded with Fura2-AM (1 μM) at resting temperature for 30 min in Hank's Balanced Salt Solution (HBSS). After washing with HBSS, the cells were incubated for 15 min in the absence of Fura2-AM to complete de-esterification of the dye. Cells were placed in a thermostated chamber (37° C.) of an inverted epifluorescence microscope (Olympus IX70) equipped with a ×40, UApo/340-1.15 W water-immersion objective (Olympus), and fluorescence micrograph images were captured at 510 nm and at 12-bit resolution by a fast-scan camera (CoolSNAP fx Monochrome, Photometrics). To minimize UV light exposure, 4×4 binning function was used. Fura2-AM was alternately excited at 340 and 380 nm, and ratios of the resulting images (excitations at 340 and 380 nm and emission filter at 520 nm) were produced at constant intervals (5 s or 10 s according to the stimulus). […] Fluorescent images were pseudocolored using the IMD display mode in MetaFluor and assembled without further manipulation in Photoshop (Adobe). Raw data were acquired with MetaFluor and graphed in Origin (OriginLab). [Ca^2+]i was calculated using the following equation: [Ca^2+]i=Kd(R−Rmin)/(R−Rmax)×Sf2/Sf1, where Kd is the Fura2-AM dissociation constant at the two excitation wavelengths (F340/F380); Rmin is the fluorescence ratio in the presence of minimal calcium, obtained by chelating Ca^2+ with 10 mM EGTA; Rmax is the fluorescence ratio in the presence of excess calcium, obtained by treating cells with 1 μM ionomycin; Sf2 is the fluorescence of the Ca^2+-free form; and Sf1 is the fluorescence of the Ca^2+-bound form of Fura2-AM at excitation wavelengths of 380 and 340 nm, respectively. In some experiments cells were placed in a Ca^2+-free medium consisting of the HBSS described above in which CaCl2 was omitted and 100 μM EGTA was added in order to chelate residual Ca^2+ ions. This medium was added to the cells just before recording to avoid leak of the intracellular calcium stores.
# All cells were purchased from ATCC (Molsheim Cedex, France). T leukemic cell lines CEM, H9 and Jurkat were cultured in RPMI supplemented with 8% heat-inactivated FCS (v/v) and 2 mM L-glutamine at 37° C. in a 5% CO2 incubator. CEM-IRC cell expressing a low amount of plasma membrane CD95 was described in (Beneteau et al., 2007; Beneteau et al., 2008). […]
# T cells were loaded with Fura-PE3-AM (1 μM) at room temperature for 30 min in Hank's Balanced Salt Solution (HBSS). […] Cells were placed in the temperature controlled chamber (37° C.) of an inverted epifluorescence microscope (Olympus IX70) equipped with an ×40 UApo/340-1.15 W water-immersion objective (Olympus), and fluorescence micrograph images were captured at 510 nm and 12-bit resolution by a fast-scan camera (CoolSNAP fx Monochrome, Photometrics). […]
# [3] = test system: Th17 cell accumulation; test: In vivo administration of cl-CD95L: cell accumulation in peritoneal cavity and spleen; parameters: species or system C57BL/6 mice; conditions: 24 hours later
# Description: Female C57BL/6 mice (Harlan UK) aged between 8-10 weeks were placed in groups of 6 and administered IP. Twenty-four hours following injection, mice were sacrificed and periteonial cavities were washed with 5 ml of PBS/2% FCS, blood smears were prepared, and spleens were collected. Blood smears and cytospins of periteonal cells (PECs) were stained with Giemsa and differential counts performed. Single cell suspensions of spleens and PECs were prepared, cell counts performed, CD4+CD62− T-cells were isolated with Miltenyi microbeads and number of cells determined by trypan blue exclusion. For experiments where animals received TAT-mCID or control peptides, 800 μg (40 mg/kg) was injected IP 2 hrs prior to administration of cl-CD95L. All mouse experiments were performed under ethical approval from the University of Nottingham local animal ethics committee and adhering to UK Home Office guidelines under the Project License 40/3412.
# Single cell suspensions of spleens and PECs were prepared as described above. RNA was extracted from CD4 T-cells using phenol/chloroform. cDNA was prepared using the Promega GO-Script Reverse Transcription Kit and used in Real-Time PCR. Briefly, cDNA samples were subject to Taqman assay performed on a Roche Lightcycler. Results are reported as expression levels were calculated using the Δct method relative to HPRT.
substance,measurement,setting,value
TAT-CID: cell penetrating peptide linking the 36-amino acid-stretch of CID (CD95 residues 175 to 210) to the HIV-TAT sequence; SEQ ID NO: 6 (RKKRRQRRRKRKEVQKTCRKHRKENQGSHESPTLNPETVAINLSD; TAT-CID),calcium response to cl-CD95L,[1],completely abolished the calcium response
same,calcium response to cl-CD95L,[2],abrogated the CD95-mediated Ca^2+ response
same,calcium response to cl-CD95L,[2]; listed as TAT CID 175-210,greatly reduced the calcium response
same,total cell counts from the PEC (accumulation of T lymphocytes),[3]; 40 mg/kg two hours prior to IP cl-CD95L (200 ng),abolished the CD95-mediated accumulation of T lymphocytes
same,IL17 production in the peritoneal cavity,"[3]; 40 mg/kg two hours prior to IP cl-CD95L (200 ng), ELISA",prevented
same,levels of IFN-γ versus control peptide,[3]; 40 mg/kg two hours prior to IP cl-CD95L,no differences were noted

# — US10189887B2, “Polypeptides and uses thereof for reducing CD95-mediated cell motility” (INSERM (INSTITUT NATIONAL DE LA SANTÉ ET DE LA RECHERCHE …, priority 2014, dated 2019)
